Assay results: patent US10800752B2, “Substituted naphtho[2,3-b]furans as water-soluble prodrugs for preventing and/or treating cancer” (BOSTON BIOMEDICAL, INC., priority 2015, dated 2020)
Counter-ions that a name gives are not always drawn.

Columns and labels:
[1] = Evaluation of a conversion rate to 2-acetylnaphtho[2,3-b]furan-4,9-dione in human plasma; type: in vitro ADME; conditions: 1 umol/L
Experimental: (§1) For test compounds, the decrease rate of the test compounds and the conversion rate thereof to 2-acetylnaphtho[2,3-b]furan-4,9-dione in human plasma, CD1 mouse plasma, and pH 7.4 phosphate buffer solution were measured.
(§2) Test compounds were incubated at the concentration of 1 umol/L in human plasma (cat. no. 12250210, COSMO BIO), CD1 mouse plasma (cat. no. AP3054, KAC), and phosphate buffer solution at 37° C., and removed at predetermined times (0, 5, 10, 30, 60, and 120 minutes). After protein-removing treatment was performed, they are analyzed with LC-MS. It should be noted that the protein-removing treatment used acetonitrile containing: 10% volume of 1 mol/L hydrochloric acid; 1% volume of 46% citric acid; and phenytoin as an internal standard.
(§3) The measurement condition of LC-MS is as described below. LC-MS condition column: Kinetex 2.6 u PFP 100 A 50×2.1 mm Column temperature: 40° C.
(§4) Mobile phase: A: 0.1% formic acid-containing water
(§5) • B: 0.1% formic acid-containing acetonitrile A/B(min): 95/5(0)→5/95(3)→5/95(4)→95/5(4.1)→95/5(6) Flow rate: 0.4 mL/min Detection: ESI (positive mode) Injection volume: 10 uL
In the same way as Example 6, the incubation time was set as 120 minutes later, and the conversion rate of each of various test compounds to 2-acetylnaphtho[2,3-b]furan-4,9-dione in human plasma, CD1 mouse plasma, and pH 7.4 phosphate buffer solution was measured.

[2] = Evaluation of a conversion rate to 2-acetylnaphtho[2,3-b]furan-4,9-dione in CD1 mouse plasma; type: in vitro ADME; conditions: 1 umol/L
Experimental: as §1, §2, §3, §4, §5
Measurement values are calculated from the peak area ratio in LC-MS between an internal standard material, phenytoin and an active form, 2-acetylnaphtho[2,3-b]furan-4,9-dione, and are expressed in %.
In the same way as Example 6, the incubation time was set as 120 minutes later, and the conversion rate of each of various test compounds to 2-acetylnaphtho[2,3-b]furan-4,9-dione in human plasma, CD1 mouse plasma, and pH 7.4 phosphate buffer solution was measured. A series of the present compounds were confirmed to be converted to 2-acetylnaphtho[2,3-b]furan-4,9-dione in pH 7.4 phosphate buffer solution in addition to human plasma and CD1 mouse plasma. Therefore, a series of the test compounds of the present invention were confirmed to be converted to the activated form via a route other than an enzymatic conversion.

[3] = Evaluation of a conversion rate to 2-acetylnaphtho[2,3-b]furan-4,9-dione in pH 7.4 phosphate buffer solution; type: physicochemical; conditions: Phosphate buffer solution (pH 7.4), 1 umol/L, 37° C., incubation time 120 min
Procedure, shortened: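 Compounds at 1 umol/L were incubated at 37° C in human plasma, CD1 mouse plasma or pH 7.4 phosphate buffer, sampled up to 120 minutes, acid/acetonitrile-deproteinised and analysed by LC-MS (ESI positive). Conversion (%) derived from the peak area ratio of the active form to phenytoin internal standard.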

Solubility test = conditions: 50 mmol/L glycine buffer solution (pH 2.0), room temperature, 24 hours shaking
Experimental: A water-soluble prodrug was added into 50 mmol/L glycine buffer solution (pH 2.0). After shaking at room temperature for 24 hours, the mixture was filtered through a membrane filter, and then the filtrate was measured with HPLC.
The measurement condition of HPLC is as described below. HPLC condition column: Acquity UPLC BEH C18, 1.7 um, 50×2.1 mm
Mobile phase: A: 0.1% trifluoroacetic acid-containing water

[4] = Human plasma, 37° C., incubation time 120 min
[5] = CD1 mouse plasma, 37° C., incubation time 120 min

SMILES	% Measurement value (conversion rate to 2-acetylnaphtho[2,3-b]furan-4,9-dione) [1, 4] [%]	% Measurement value (conversion rate to 2-acetylnaphtho[2,3-b]furan-4,9-dione) [2, 5] [%]	% Measurement value (conversion rate to 2-acetylnaphtho[2,3-b]furan-4,9-dione) [3] [%]	Solubility in pH 2.0 buffer solution (Solubility test) [mg/mL]	% Measurement value (conversion rate to 2-acetylnaphtho[2,3-b]furan-4,9-dione) ([1]; human, 120 min) [%]	% Measurement value (conversion rate to 2-acetylnaphtho[2,3-b]furan-4,9-dione) ([2]; CD1, mouse, 120 min) [%]
CC(=O)c1cc2c(OC(=O)NC3CCNCC3)c3ccccc3c(OC(=O)NC3CCNCC3)c2o1.Cl.Cl [Example 8]	79	79	49	–	–	–
CC(=O)c1cc2c(OC(=O)NCCOCCN)c3ccccc3c(OC(=O)NCCOCCN)c2o1.Cl.Cl [Example 9]	65	81	50	–	–	–
CC(=O)c1cc2c(OC(=O)NC3CNC3)c3ccccc3c(OC(=O)NC3CNC3)c2o1.Cl.Cl [Example 10]	89	59	58	>5.0	–	–
CC(=O)c1cc2c(OC(=O)NCC[C@H](N)C(=O)O)c3ccccc3c(OC(=O)NCC[C@H](N)C(=O)O)c2o1.Cl.Cl [Example 12]	63	78	63	–	–	–
CC(=O)c1cc2c(OC(=O)NCCCCN)c3ccccc3c(OC(=O)NCCCCN)c2o1.Cl.Cl [Example 13]	95	50	13	–	–	–
CC(=O)c1cc2c(OC(=O)NCCN)c3ccccc3c(O)c2o1.Cl [Example 18]	81	73	80	–	–	–
CC(=O)c1cc2c(OC(=O)OCCCCN)c3ccccc3c(OC(=O)OCCCCN)c2o1 [Example 21, 2-Acetylnaphtho[2,3-b]furan-4,9-diyl bis(4-aminobutyl)bis(carbonate)dihydrochloride]	–	–	24	–	40	44
CCNCCCCOC(=O)Oc1c2ccccc2c(OC(=O)OCCCCNCC)c2oc(C(C)=O)cc12.Cl.Cl [Example 28]	73	85	34	–	–	–
COC(=O)[C@@H](N)CNC(=O)Oc1c2ccccc2c(OC(=O)NC[C@H](N)C(=O)OC)c2oc(C(C)=O)cc12.Cl.Cl [Example 32]	81	74	46	>5.0	–	–
CC(=O)c1cc2c(OC(=O)NCCCCCNCC(=O)O)c3ccccc3c(OC(=O)NCCCCCNCC(=O)O)c2o1.Cl.Cl [Example 35]	78	70	38	>5.0	–	–
COC(=O)CNCCNC(=O)Oc1c2ccccc2c(OC(=O)NCCNCC(=O)OC)c2oc(C(C)=O)cc12.Cl.Cl [Example 36]	73	66	46	>5.0	–	–
CC(=O)c1cc2c(OC(=O)NCCCCCCN)c3ccccc3c(OC(=O)NCCCCCCN)c2o1.Cl.Cl [Example 37]	35	33	17	>5.0	–	–
CC(=O)c1cc2c(OC(=O)NCCCCCCCN)c3ccccc3c(OC(=O)NCCCCCCCN)c2o1.Cl.Cl [Example 38]	85	72	39	>5.0	–	–
CC(=O)c1cc2c(OC(=O)NCCCCCCCCN)c3ccccc3c(OC(=O)NCCCCCCCCN)c2o1.Cl.Cl [Example 39]	80	62	31	>5.0	–	–
CC(=O)c1cc2c(OC(=O)NCCCNCC(=O)O)c3ccccc3c(OC(=O)NCCCNCC(=O)O)c2o1.Cl.Cl [Example 40]	89	86	50	>5.0	–	–
CC(=O)c1cc2c(OC(=O)NCCNCC(=O)NCC(=O)O)c3ccccc3c(OC(=O)NCCNCC(=O)NCC(=O)O)c2o1.Cl.Cl [Example 41]	86	81	52	>5.0	–	–
CC(=O)c1cc2c(OC(=O)NCCNCC(=O)O)c3ccccc3c(O)c2o1.Cl [Example 71]	61	68	70	0.1	–	–
CC(=O)c1cc2c(OC(=O)NCCCCCN)c3ccccc3c(O)c2o1.Cl [Example 72]	53	42	38	2.4	–	–
CC(=O)c1cc2c(OC(=O)NCCCCCCCN)c3ccccc3c(O)c2o1.Cl [Example 73]	88	63	66	0.1	–	–
CC(=O)c1cc2c(OC(=O)NCCCCN)c3ccccc3c(O)c2o1.Cl [Example 74]	70	62	82	4.9	–	–
CC(=O)c1cc2c(OC(=O)NCCCCCCCCN)c3ccccc3c(O)c2o1.Cl [Example 75]	79	60	45	0.1	–	–
CC(=O)c1cc2c(OC(=O)NCCCCCNCC(=O)O)c3ccccc3c(O)c2o1.Cl [Example 76]	68	71	57	0.4	–	–
